In PMC9919311, “Catechol-O-methyltransferase Inhibitors from Calendula officinalis Leaf” (Molecules, 2023):
Read-outs that look alike come from different tables or passages of the source.

Assays:
Recombinant human COMT = biological target: T1, Recombinant human COMT (Homo sapiens, UniProt P21964); assay: COMT inhibitory assay (3-BTD fluorescent substrate); assay type: biochemical
T1 construct: made in house
T1 sequence (P21964 1-271): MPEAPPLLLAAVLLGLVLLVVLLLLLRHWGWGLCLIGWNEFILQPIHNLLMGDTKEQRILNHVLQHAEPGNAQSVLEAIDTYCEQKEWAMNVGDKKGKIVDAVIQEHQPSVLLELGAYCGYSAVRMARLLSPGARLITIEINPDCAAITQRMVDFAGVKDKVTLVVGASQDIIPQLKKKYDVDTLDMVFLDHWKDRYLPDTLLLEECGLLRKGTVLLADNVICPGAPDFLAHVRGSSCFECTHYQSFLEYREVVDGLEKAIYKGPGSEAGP

[1] = cited from earlier work
[2] = 1 µM COMT, 200 µM SAM, 20 µM 3-BTD, 0–100 µM inhibitor, pH 7.5, 37 °C, read-out: COMT inhibitory activities (IC50)

IC50 (Recombinant human COMT; [2]) [µM]	SMILES	other results
55	COc1cc(-c2oc3cc(O)cc(O)c3c(=O)c2O[C@@H]2O[C@H](CO)[C@@H](O)[C@H](O)[C@H]2O)ccc1O [Compound 2, isorhamnetin 3-O-β-glucoside]	–
–	CC1OC(OC2C(Oc3c(-c4ccc(O)c(O)c4)oc4cc(O)cc(O)c4c3=O)OC(CO)C(O)C2O)C(O)C(O)C1O (stereo not drawn) [Compound 3, quercetin 3-O-β-neohesperidoside]	IC50 (Recombinant human COMT): 71 µM
65	CC1OC(OC2C(Oc3c(-c4ccc(O)c(O)c4)oc4cc(O)cc(O)c4c3=O)OC(COC(=O)CC(=O)O)C(O)C2O)C(O)C(O)C1O (stereo not drawn) [Compound 4, quercetin 3-O-(2″-O-α-rhamnosyl-6″-O-malonyl)-β-glucoside]	–
59	O=C(O)CC(=O)OC[C@H]1O[C@@H](Oc2c(-c3ccc(O)c(O)c3)oc3cc(O)cc(O)c3c2=O)[C@H](O)[C@@H](O)[C@@H]1O [Compound 5, quercetin 3-O-(6″-O-malonyl)-β-glucoside]	–
42	COC(=O)CC(=O)OC[C@H]1O[C@@H](Oc2c(-c3ccc(O)c(O)c3)oc3cc(O)cc(O)c3c2=O)[C@H](O)[C@@H](O)[C@@H]1O [Compound 6]	–
> 100	COc1cc(-c2oc3cc(O)cc(O)c3c(=O)c2O[C@@H]2O[C@H](COC(=O)CC(=O)O)[C@@H](O)[C@H](O)[C@H]2O)ccc1O [Compound 7, isorhamnetin 3-O-(6″-O-malonyl)-β-glucoside]	–
100	O=C(/C=C/c1ccc(O)c(O)c1)O[C@@H]1C[C@](O)(C(=O)O)C[C@@H](O)[C@H]1O [Compound 8, chlorogenic acid]	–
21	O=C(C=Cc1ccc(O)c(O)c1)OC1CC(O)(C(=O)O)CC(O)C1OC(=O)C=Cc1ccc(O)c(O)c1 (centres unmarked) [Compound 9, 3,4-dicaffeoylquinic acid]	COMT inhibitory activity (in words) (Recombinant human COMT; isolated compounds 1–10 compared): highest inhibitory activity
> 100	COc1cc(C(=O)O)cc(OC)c1O [Compound 10, syringic acid]	–
–	Cc1ccc(C(=O)c2cc(O)c(O)c([N+](=O)[O-])c2)cc1 [Tolcapone]	hepatotoxicity [1]: severe hepatotoxicity
